Data published in US12570671B2 (BRISTOL-MYERS SQUIBB COMPANY, priority 2020, dated 2026).

Key:
Helios = Helios (Homo sapiens, UniProt Q96SW2+Q9UKS7); assay: Helios Cellular Degradation Assay (Helios readout); format: cell-based; set-up: endogenous in cells; host or cells: Jurkat; details: Jurkat cells, 72 h incubation, Helios-PE antibody staining, flow cytometry; read-out: Helios Jurkat IC50
Method in brief: (§1)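 Jurkat cells (80,000/well, RPMI+10% FBS) were treated with compound for 72 h at 37° C. After fixation and permeabilization they were stained with fluorescent antibodies to Helios, Ikaros and Aiolos. Intracellular protein levels were quantified by flow cytometry.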

Ikaros = Ikaros (Homo sapiens, UniProt Q13422+Q96SW2); assay: Helios Cellular Degradation Assay (Ikaros readout); format: cell-based; set-up: endogenous in cells; host or cells: Jurkat; details: Jurkat cells, 72 h incubation, Ikaros-Alexa488 antibody staining, flow cytometry; read-out: Ikaros Jurkat IC50
Sequence of Ikaros (Q13422 whole entry): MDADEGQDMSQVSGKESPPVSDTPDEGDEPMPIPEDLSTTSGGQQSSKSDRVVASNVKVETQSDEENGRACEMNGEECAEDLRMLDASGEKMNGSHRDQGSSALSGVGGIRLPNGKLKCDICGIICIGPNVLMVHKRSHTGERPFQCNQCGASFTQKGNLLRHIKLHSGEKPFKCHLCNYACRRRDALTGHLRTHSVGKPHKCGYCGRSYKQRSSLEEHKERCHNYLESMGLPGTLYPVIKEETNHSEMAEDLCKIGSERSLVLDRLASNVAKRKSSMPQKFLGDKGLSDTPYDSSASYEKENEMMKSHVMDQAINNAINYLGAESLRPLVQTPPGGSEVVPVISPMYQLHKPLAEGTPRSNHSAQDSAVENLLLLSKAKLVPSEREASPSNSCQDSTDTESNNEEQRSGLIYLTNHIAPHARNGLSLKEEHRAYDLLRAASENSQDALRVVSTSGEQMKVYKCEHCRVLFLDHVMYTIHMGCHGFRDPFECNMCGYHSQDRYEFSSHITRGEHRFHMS
Sequence of Ikaros (Q96SW2 whole entry): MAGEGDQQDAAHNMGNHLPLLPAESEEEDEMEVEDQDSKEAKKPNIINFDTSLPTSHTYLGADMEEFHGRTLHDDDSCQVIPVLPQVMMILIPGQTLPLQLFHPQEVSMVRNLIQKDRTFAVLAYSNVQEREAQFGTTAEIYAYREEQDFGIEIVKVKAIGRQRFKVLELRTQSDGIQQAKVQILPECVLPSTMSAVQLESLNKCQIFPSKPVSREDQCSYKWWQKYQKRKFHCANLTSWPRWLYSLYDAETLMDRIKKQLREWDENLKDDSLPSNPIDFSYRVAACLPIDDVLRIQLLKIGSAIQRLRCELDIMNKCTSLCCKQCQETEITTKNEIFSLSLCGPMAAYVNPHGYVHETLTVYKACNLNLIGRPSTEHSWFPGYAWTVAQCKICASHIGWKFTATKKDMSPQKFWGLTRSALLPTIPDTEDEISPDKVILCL
Sequence of Ikaros (Q16531 whole entry partner): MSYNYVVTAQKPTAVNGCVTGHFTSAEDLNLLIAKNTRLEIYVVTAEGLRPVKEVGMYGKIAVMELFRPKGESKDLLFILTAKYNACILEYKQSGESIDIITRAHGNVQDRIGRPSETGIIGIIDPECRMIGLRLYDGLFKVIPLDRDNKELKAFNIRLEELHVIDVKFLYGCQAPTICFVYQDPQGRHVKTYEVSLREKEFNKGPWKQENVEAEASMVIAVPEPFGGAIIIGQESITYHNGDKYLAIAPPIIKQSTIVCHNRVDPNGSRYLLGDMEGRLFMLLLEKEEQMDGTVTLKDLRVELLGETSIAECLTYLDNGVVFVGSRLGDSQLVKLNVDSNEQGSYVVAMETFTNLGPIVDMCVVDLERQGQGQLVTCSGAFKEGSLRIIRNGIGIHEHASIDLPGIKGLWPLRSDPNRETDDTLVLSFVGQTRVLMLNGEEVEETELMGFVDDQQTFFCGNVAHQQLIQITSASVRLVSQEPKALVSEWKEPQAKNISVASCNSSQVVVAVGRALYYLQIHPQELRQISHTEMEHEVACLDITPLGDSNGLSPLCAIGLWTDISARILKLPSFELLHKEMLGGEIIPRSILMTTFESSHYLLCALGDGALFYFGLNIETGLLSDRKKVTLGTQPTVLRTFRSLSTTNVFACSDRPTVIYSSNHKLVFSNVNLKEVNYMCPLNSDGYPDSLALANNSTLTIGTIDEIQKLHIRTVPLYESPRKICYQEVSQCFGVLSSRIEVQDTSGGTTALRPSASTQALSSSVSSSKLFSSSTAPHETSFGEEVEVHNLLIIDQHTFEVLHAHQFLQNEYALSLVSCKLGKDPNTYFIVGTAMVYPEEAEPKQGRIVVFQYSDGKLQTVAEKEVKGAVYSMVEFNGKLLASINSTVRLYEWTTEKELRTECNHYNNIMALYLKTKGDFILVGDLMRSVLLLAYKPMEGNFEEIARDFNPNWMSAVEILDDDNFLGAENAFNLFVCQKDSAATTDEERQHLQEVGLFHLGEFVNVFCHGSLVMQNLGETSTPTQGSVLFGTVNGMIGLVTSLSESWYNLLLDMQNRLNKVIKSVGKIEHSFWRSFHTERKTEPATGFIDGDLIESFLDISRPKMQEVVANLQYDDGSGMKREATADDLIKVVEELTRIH
Method in brief: as §1

Sequence of Helios (Q9UKS7 whole entry): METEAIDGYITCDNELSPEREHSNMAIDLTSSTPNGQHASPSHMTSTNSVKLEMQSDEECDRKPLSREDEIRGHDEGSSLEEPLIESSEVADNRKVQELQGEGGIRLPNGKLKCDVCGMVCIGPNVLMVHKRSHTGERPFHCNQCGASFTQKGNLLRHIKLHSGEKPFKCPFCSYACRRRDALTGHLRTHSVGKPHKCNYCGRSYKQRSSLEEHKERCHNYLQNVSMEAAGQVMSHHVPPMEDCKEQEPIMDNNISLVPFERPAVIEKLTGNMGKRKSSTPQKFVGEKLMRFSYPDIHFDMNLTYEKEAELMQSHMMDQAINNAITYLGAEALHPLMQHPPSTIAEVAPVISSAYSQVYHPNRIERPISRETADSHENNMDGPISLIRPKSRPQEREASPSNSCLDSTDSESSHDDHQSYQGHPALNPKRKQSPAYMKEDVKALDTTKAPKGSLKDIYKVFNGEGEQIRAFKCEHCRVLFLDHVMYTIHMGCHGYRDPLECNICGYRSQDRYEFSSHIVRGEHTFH
Sequence of Helios (Q96SW2 whole entry): as the sequence (Q96SW2 whole entry) above
Sequence of Helios (Q16531 whole entry partner): as the sequence (Q16531 whole entry partner) above

DC50 (Helios) | DC50 (Ikaros) | SMILES
0.03 µM | 0.14 µM | O=C1CCC(N2Cc3cc(-c4nccc5ccc(F)cc45)ccc3C2=O)C(=O)N1 (stereo not shown) [Example 19, 3-[5-(7-fluoroisoquinolin-1-yl)-1-oxo-2,3-dihydro-1H-isoindol-2-yl]piperidine-2,6-dione]
0.12 µM | > 20 µM | COc1cccc2ccc(-c3ccc4c(c3)CN(C3CCC(=O)NC3=O)C4=O)nc12 (stereo not shown) [Example 33, 3-[5-(8-methoxyquinolin-2-yl)-1-oxo-2,3-dihydro-1H-isoindol-2-yl]piperidine-2,6-dione]
0.05 µM | ≥ 20 µM | O=C1CC[C@H](N2Cc3cc(-c4ccc5cccnc5n4)ccc3C2=O)C(=O)N1 [Example 122, (3S)-3-[5-(1,8-naphthyridin-2-yl)-1-oxo-2,3-dihydro-1H-isoindol-2-yl]piperidine-2,6-dione]
0.053 µM | > 20 µM | O=C1CCC(N2Cc3cc(-c4ncc5cc(F)ccc5n4)ccc3C2=O)C(=O)N1 (stereo not shown) [Example 35, 3-[5-(6-fluoroquinazolin-2-yl)-1-oxo-2,3-dihydro-1H-isoindol-2-yl]piperidine-2,6-dione]
0.011 µM | > 20 µM | CNc1nc(-c2ccc3c(c2)CN(C2CCC(=O)NC2=O)C3=O)cc2ccccc12 (stereo not shown) [Example 50, 3-{5-[1-(Methylamino)isoquinolin-3-yl]-1-oxo-2,3-dihydro-1H-isoindol-2-yl}piperidine-2,6-dione]
2.4 µM | > 20 µM | O=C1CCC(N2Cc3cc(-c4cc(O)c5ccccc5n4)ccc3C2=O)C(=O)N1 (stereo not shown) [Example 37, 3-[5-(4-hydroxyquinolin-2-yl)-1-oxo-2,3-dihydro-1H-isoindol-2-yl]piperidine-2,6-dione]
0.025 µM | > 20 µM | O=C1CCC(N2Cc3cc(-c4ccc5cc(Cl)ccc5n4)ccc3C2=O)C(=O)N1 (stereo not shown) [Example 27, 3-[5-(6-chloroquinolin-2-yl)-1-oxo-2,3-dihydro-1H-isoindol-2-yl]piperidine-2,6-dione]
0.098 µM | > 20 µM | O=C1CCC(N2Cc3cc(-c4cnc5cc(F)ccc5n4)ccc3C2=O)C(=O)N1 (stereo not shown) [Example 26, 3-[5-(6-fluoroquinoxalin-2-yl)-1-oxo-2,3-dihydro-1H-isoindol-2-yl]piperidine-2,6-dione]
0.5 µM | ≥ 20 µM | COc1nc(-c2ccc3c(c2)CN(C2CCC(=O)NC2=O)C3=O)cc2ccccc12 (stereo not shown) [Example 156, 3-[5-(1-Methoxyisoquinolin-3-yl)-1-oxo-2,3-dihydro-1H-isoindol-2-yl]piperidine-2,6-dione]
0.01 µM | ≥ 20 µM | Nc1ccc2c(-c3ccc4c(c3)CN(C3CCC(=O)NC3=O)C4=O)nccc2c1 (stereo not shown) [Example 133, 3-[5-(6-aminoisoquinolin-1-yl)-1-oxo-2,3-dihydro-1H-isoindol-2-yl]piperidine-2,6-dione]
0.61 µM | ≥ 10 µM | O=C1CCC(N2Cc3cc(-c4ccccn4)ccc3C2=O)C(=O)N1 (stereo not shown) [Example 109, 3-(1-oxo-5-(pyridin-2-yl)isoindolin-2-yl) piperidine-2,6-dione]
2.46 µM | ≥ 20 µM | N#Cc1cccc(-c2ccc3c(c2)CN(C2CCC(=O)NC2=O)C3=O)n1 (stereo not shown) [Example 162, 6-(2-(2,6-dioxopiperidin-3-yl)-1-oxoisoindolin-5-yl)picolinonitrile]
0.07 µM | > 20 µM | O=C1CCC(N2Cc3cc(-c4ccc5cccc(Cl)c5n4)ccc3C2=O)C(=O)N1 (stereo not shown) [Example 34, 3-[5-(8-chloroquinolin-2-yl)-1-oxo-2,3-dihydro-1H-isoindol-2-yl]piperidine-2,6-dione]
2.99 µM | ≥ 20 µM | NC(=O)c1nc(-c2ccc3c(c2)CN([C@H]2CCC(=O)NC2=O)C3=O)cc2ccccc12 [Example 126, 3-{2-[(3S)-2,6-dioxopiperidin-3-yl]-1-oxo-2,3-dihydro-1H-isoindol-5-yl}isoquinoline-1-carboxamide]
0.15 µM | ≥ 10 µM | Nc1ccc(-c2ccc3c(c2)CN(C2CCC(=O)NC2=O)C3=O)nc1N (stereo not shown) [Example 117, 3-(5-(5,6-diaminopyridin-2-yl)-1-oxoisoindolin-2-yl)piperidine-2,6-dione]

Second part, the molecule before the results:

SMILES | DC50 (Helios) | DC50 (Ikaros)
CC(=O)Nc1nc(-c2ccc3c(c2)CN(C2CCC(=O)NC2=O)C3=O)cc(C)c1C (stereo not shown) [Example 167, N-(6-(2-(2,6-dioxopiperidin-3-yl)-1-oxoisoindolin-5-yl)-3,4-dimethylpyridin-2-yl) acetamide] | 0.05 µM | > 10 µM
O=C1CCC(N2Cc3cc(-c4nccc(-c5ccccn5)n4)ccc3C2=O)C(=O)N1 (stereo not shown) [Example 75, 3-(1-oxo-5-(4-(pyridin-2-yl)pyrimidin-2-yl)isoindolin-2-yl)piperidine-2,6-dione] | 1.2 µM | > 20 µM
Nc1nc(-c2ccc3c(c2)CN(C2CCC(=O)NC2=O)C3=O)cc2ncccc12 (stereo not shown) [Example 57, 3-[5-(5-amino-1,6-naphthyridin-7-yl)-1-oxo-2,3-dihydro-1H-isoindol-2-yl]piperidine-2,6-dione] | 0.007 µM | > 20 µM
Nc1nc2ccccc2nc1-c1ccc2c(c1)CN(C1CCC(=O)NC1=O)C2=O (stereo not shown) [Example 5, 3-[5-(3-aminoquinoxalin-2-yl)-1-oxo-2,3-dihydro-1H-isoindol-2-yl]piperidine-2,6-dione] | > 20 µM | > 20 µM
CCNc1cc(C)cc(-c2ccc3c(c2)CN(C2CCC(=O)NC2=O)C3=O)n1 (stereo not shown) [Example 188, 3-(5-(6-(Ethylamino)-4-methylpyridin-2-yl)-1-oxoisoindolin-2-yl)piperidine-2,6-dione] | 0.04 µM | ≥ 10 µM
Nc1cc(N2CCN(Cc3ccccc3)CC2)cc(-c2ccc3c(c2)CN(C2CCC(=O)NC2=O)C3=O)n1 (stereo not shown) [Example 184, 3-(5-(6-amino-4-(4-benzylpiperazin-1-yl)pyridin-2-yl)-1-oxoisoindolin-2-yl) piperidine-2,6-dione] | ≥ 10 µM | ≥ 10 µM
Nc1cc2ccccc2c(-c2ccc3c(c2)CN(C2CCC(=O)NC2=O)C3=O)n1 (stereo not shown) [Example 25, 3-[5-(3-aminoisoquinolin-1-yl)-1-oxo-2,3-dihydro-1H-isoindol-2-yl]piperidine-2,6-dione] | 0.048 µM | 8.4 µM
Cc1cnc(-c2ccc3c(c2)CN(C2CCC(=O)NC2=O)C3=O)cc1C (stereo not shown) [Example 121, 3-(5-(4,5-dimethylpyridin-2-yl)-1-oxoisoindolin-2-yl)piperidine-2,6-dione] | 0.04 µM | 1.28 µM
C[Si](C)(C)CCn1nnc2c(-c3ccc4c(c3)CN(C3CCC(=O)NC3=O)C4=O)nc(N)nc21 (stereo not shown) [Example 42, 3-(5-{5-amino-3-[2-(trimethylsilyl)ethyl]-3H-[1,2,3]triazolo[4,5-d]pyrimidin-7-yl}-1-oxo-2,3-dihydro-1H-isoindol-2-yl)piperidine-2,6-dione] | 0.11 µM | 3.6 µM
O=C1CCC(N2Cc3cc(-c4ncnc5ccccc45)ccc3C2=O)C(=O)N1 (stereo not shown) [Example 91, 3-(1-oxo-5-(quinazolin-4-yl)isoindolin-2-yl)piperidine-2,6-dione] | 0.21 µM | ≥ 20 µM
Cc1ccc2c(-c3ccc4c(c3)CN(C3CCC(=O)NC3=O)C4=O)nccc2c1 (stereo not shown) [Example 23, 3-[5-(6-methylisoquinolin-1-yl)-1-oxo-2,3-dihydro-1H-isoindol-2-yl]piperidine-2,6-dione] | 0.006 µM | 0.13 µM
COc1ccc(N)nc1-c1ccc2c(c1)CN(C1CCC(=O)NC1=O)C2=O (stereo not shown) [Example 106, 3-(5-(6-amino-3-methoxypyridin-2-yl)-1-oxoisoindolin-2-yl)piperidine-2,6-dione] | 0.02 µM | ≥ 20 µM
CC(C)c1cc(-c2ccc3c(c2)CN(C2CCC(=O)NC2=O)C3=O)nc(N)c1C#N (stereo not shown) [Example 178, 2-amino-6-(2-(2,6-dioxopiperidin-3-yl)-1-oxoisoindolin-5-yl)-4-isopropylnicotinonitrile] | 0.07 µM | ≥ 10 µM
NC(=O)c1ccc(-c2ccc3c(c2)CN(C2CCC(=O)NC2=O)C3=O)nn1 (stereo not shown) [Example 78, 6-[2-(2,6-dioxopiperidin-3-yl)-1-oxo-2,3-dihydro-1H-isoindol-5-yl]pyridazine-3-carboxamide] | 2.8 µM | > 20 µM
CN(C)c1cnc(-c2ccc3c(c2)CN(C2CCC(=O)NC2=O)C3=O)c2cc(Cl)ccc12 (stereo not shown) [Example 129, 3-{5-[7-chloro-4-(dimethylamino)isoquinolin-1-yl]-1-oxo-2,3-dihydro-1H-isoindol-2-yl}piperidine-2,6-dione] | 0.01 µM | 0.09 µM
N#Cc1cc(N)nc(-c2ccc3c(c2)CN(C2CCC(=O)NC2=O)C3=O)c1 (stereo not shown) [Example 149, 2-amino-6-(2-(2,6-dioxopiperidin-3-yl)-1-oxoisoindolin-5-yl)isonicotinonitrile] | 0.19 µM | ≥ 10 µM
O=C1CCC(N2Cc3cc(-c4nc5ccccc5nc4-c4ccccc4)ccc3C2=O)C(=O)N1 (stereo not shown) [Example 99, 3-(1-oxo-5-(3-phenylquinoxalin-2-yl)isoindolin-2-yl)piperidine-2,6-dione] | 0.34 µM | ≥ 20 µM
O=C1CCC(N2Cc3cc(-c4cc(C(=O)NC5CC5)c5ccccc5n4)ccc3C2=O)C(=O)N1 (stereo not shown) [Example 14, N-cyclopropyl-2-[2-(2,6-dioxopiperidin-3-yl)-1-oxo-2,3-dihydro-1H-isoindol-5-yl]quinoline-4-carboxamide] | 0.4 µM | > 20 µM
Nc1cc(C(F)(F)F)cc(-c2ccc3c(c2)CN(C2CCC(=O)NC2=O)C3=O)n1 (stereo not shown) [Example 163, 3-(5-(6-amino-4-(trifluoromethyl)pyridin-2-yl)-1-oxoisoindolin-2-yl)piperidine-2,6-dione] | 0.09 µM | ≥ 20 µM
N#Cc1ccnnc1-c1ccc2c(c1)CN(C1CCC(=O)NC1=O)C2=O (stereo not shown) [Example 76, 3-(2-(2,6-dioxopiperidin-3-yl)-1-oxoisoindolin-5-yl)pyridazine-4-carbonitrile] | > 20 µM | > 20 µM
